Test results reported in PubChem BioAssay (NCI).
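Tested at 5 concentrations; 48 h exposure; 96-well plates; endpoints linearly interpolated, else capped at highest concentration. Definition used: TGI = concentration required for complete inhibition of growth.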

Columns and labels:
Assay in all cases: NCI anticancer screen, dose series, 48 h
786-0 renal = system: 786-0 renal
A498 renal = system: A498 renal
A549 NSCLC = system: A549 NSCLC
ACHN renal = system: ACHN renal
BT-549 breast = system: BT-549 breast
CAKI-1 renal = system: CAKI-1 renal
CCRF-CEM leukemia = system: CCRF-CEM leukemia
COLO 205 colon = system: COLO 205 colon
DU-145 prostate = system: DU-145 prostate
EKVX NSCLC = system: EKVX NSCLC
HCC-2998 colon = system: HCC-2998 colon
HCT-116 colon = system: HCT-116 colon
HCT-15 colon = system: HCT-15 colon
HL-60(TB) leukemia = system: HL-60(TB) leukemia
HOP-62 NSCLC = system: HOP-62 NSCLC
HOP-92 NSCLC = system: HOP-92 NSCLC
HS 578T breast = system: HS 578T breast
HT29 colon = system: HT29 colon
IGROV1 ovarian = system: IGROV1 ovarian
KM12 colon = system: KM12 colon
LOX IMVI melanoma = system: LOX IMVI melanoma
M14 melanoma = system: M14 melanoma
MALME-3M melanoma = system: MALME-3M melanoma
MCF7 breast = system: MCF7 breast
MDA-MB-231 breast = system: MDA-MB-231 breast
MDA-MB-435 = system: MDA-MB-435
MDA-N = system: MDA-N
NCI-H23 lung = system: NCI-H23 lung
NCI-H460 lung = system: NCI-H460 lung
NCI-H522 lung = system: NCI-H522 lung
NCI/ADR-RES ovarian = system: NCI/ADR-RES ovarian
OVCAR-3 ovarian = system: OVCAR-3 ovarian
OVCAR-4 ovarian = system: OVCAR-4 ovarian
OVCAR-5 ovarian = system: OVCAR-5 ovarian
OVCAR-8 ovarian = system: OVCAR-8 ovarian
PC-3 prostate = system: PC-3 prostate
RPMI-8226 leukemia = system: RPMI-8226 leukemia
RXF 393 renal = system: RXF 393 renal
SF-268 CNS = system: SF-268 CNS
SF-295 CNS = system: SF-295 CNS
SF-539 CNS = system: SF-539 CNS
SK-MEL-2 melanoma = system: SK-MEL-2 melanoma
SK-MEL-28 melanoma = system: SK-MEL-28 melanoma
SK-MEL-5 melanoma = system: SK-MEL-5 melanoma
SN12C renal = system: SN12C renal
SNB-19 CNS = system: SNB-19 CNS
SNB-75 CNS = system: SNB-75 CNS
SR leukemia = system: SR leukemia
SW-620 colon = system: SW-620 colon
T-47D breast = system: T-47D breast
TK-10 renal = system: TK-10 renal
U251 CNS = system: U251 CNS
UACC-257 melanoma = system: UACC-257 melanoma
UACC-62 melanoma = system: UACC-62 melanoma
UO-31 renal = system: UO-31 renal
K-562 leukemia = system: K-562 leukemia
MOLT-4 leukemia = system: MOLT-4 leukemia
NCI-H226 lung = system: NCI-H226 lung
SK-OV-3 ovarian = system: SK-OV-3 ovarian

Measured: TGI

COc1ccc(C2N(c3ccc(F)c([N+](=O)[O-])c3)C(=O)N3C(c4ccc(OC)cc4)N(c4ccc(F)c([N+](=O)[O-])c4)C(=O)N23)cc1 (configuration not stated)
> 100 µM: 786-0 renal | A498 renal | A549 NSCLC | ACHN renal | BT-549 breast | CAKI-1 renal | CCRF-CEM leukemia | COLO 205 colon | DU-145 prostate | EKVX NSCLC | HCC-2998 colon | HCT-116 colon | HCT-15 colon | HL-60(TB) leukemia | HOP-62 NSCLC | HOP-92 NSCLC | HS 578T breast | HT29 colon | IGROV1 ovarian | KM12 colon | LOX IMVI melanoma | M14 melanoma | MALME-3M melanoma | MCF7 breast | MDA-MB-231 breast | MDA-MB-435 | MDA-N | NCI-H23 lung | NCI-H460 lung | NCI-H522 lung | NCI/ADR-RES ovarian | OVCAR-3 ovarian | OVCAR-4 ovarian | OVCAR-5 ovarian | OVCAR-8 ovarian | PC-3 prostate | RPMI-8226 leukemia | RXF 393 renal | SF-268 CNS | SF-295 CNS | SF-539 CNS | SK-MEL-2 melanoma | SK-MEL-28 melanoma | SK-MEL-5 melanoma | SN12C renal | SNB-19 CNS | SNB-75 CNS | SR leukemia | SW-620 colon | T-47D breast | TK-10 renal | U251 CNS | UACC-257 melanoma | UACC-62 melanoma | UO-31 renal

CCOC(=O)c1nc2cc(C(F)(F)F)ccc2nc1Nc1cc(OC)c(OC)c(OC)c1
> 100 µM: 786-0 renal | A498 renal | A549 NSCLC | ACHN renal | BT-549 breast | CAKI-1 renal | CCRF-CEM leukemia | COLO 205 colon | DU-145 prostate | EKVX NSCLC | HCC-2998 colon | HCT-116 colon | HCT-15 colon | HL-60(TB) leukemia | HOP-62 NSCLC | HOP-92 NSCLC | HS 578T breast | HT29 colon | IGROV1 ovarian | K-562 leukemia | KM12 colon | LOX IMVI melanoma | M14 melanoma | MALME-3M melanoma | MCF7 breast | MDA-MB-231 breast | MDA-MB-435 | MDA-N | MOLT-4 leukemia | NCI-H226 lung | NCI-H23 lung | NCI-H460 lung | NCI-H522 lung | NCI/ADR-RES ovarian | OVCAR-3 ovarian | OVCAR-5 ovarian | OVCAR-8 ovarian | PC-3 prostate | RPMI-8226 leukemia | RXF 393 renal | SF-268 CNS | SF-295 CNS | SF-539 CNS | SK-MEL-28 melanoma | SK-MEL-5 melanoma | SK-OV-3 ovarian | SN12C renal | SNB-19 CNS | SNB-75 CNS | SR leukemia | SW-620 colon | T-47D breast | TK-10 renal | U251 CNS | UACC-257 melanoma | UACC-62 melanoma | UO-31 renal

NC(=O)SCC(=O)Nc1ccc2cccc3c2c1CC3
52 µM: OVCAR-5 ovarian
37.5 µM: UACC-62 melanoma
91.9 µM: CAKI-1 renal
24.6 µM: SW-620 colon
20.5 µM: U251 CNS
54.4 µM: RXF 393 renal
47.2 µM: MDA-N
59.9 µM: NCI-H23 lung
44.7 µM: ACHN renal
45.6 µM: SN12C renal
> 100 µM: A498 renal | A549 NSCLC | CCRF-CEM leukemia | COLO 205 colon | DU-145 prostate | EKVX NSCLC | HCC-2998 colon | HCT-15 colon | HOP-62 NSCLC | HS 578T breast | IGROV1 ovarian | K-562 leukemia | KM12 colon | M14 melanoma | MALME-3M melanoma | NCI-H522 lung | NCI/ADR-RES ovarian | OVCAR-3 ovarian | OVCAR-8 ovarian | PC-3 prostate | SF-295 CNS | SNB-19 CNS | SNB-75 CNS | UO-31 renal
32.9 µM: SR leukemia
88.7 µM: HT29 colon
49.2 µM: RPMI-8226 leukemia
47.1 µM: SK-MEL-2 melanoma
42.8 µM: 786-0 renal
21.6 µM: LOX IMVI melanoma
29.6 µM: MCF7 breast
27.4 µM: MDA-MB-231 breast
51.3 µM: UACC-257 melanoma
4.61 µM: HOP-92 NSCLC
75.9 µM: SK-MEL-5 melanoma
33.6 µM: MDA-MB-435
36 µM: HCT-116 colon
34.3 µM: BT-549 breast
28.3 µM: HL-60(TB) leukemia
56.8 µM: OVCAR-4 ovarian
95.9 µM: T-47D breast
69.8 µM: TK-10 renal
34.6 µM: SF-539 CNS
44.8 µM: SF-268 CNS
63.1 µM: MOLT-4 leukemia
